Data: publication PMC11859928, “Design, Synthesis, and Antiproliferative Activity of Novel Indole/1,2,4-Triazole Hybrids as Tubulin Polymerization Inhibitors” (Pharmaceuticals, 2025)

Key:
Experiment in all cases: NCI one-dose assay
Format in all cases: cell-based
M14 = conditions: Homo sapiens, M14, Melanoma, read-out: Cell growth inhibition %
Method: (§1) The National Cancer Institute (NCI), Bethesda, USA, selected the final compounds 6a–j and 7a–j for in vitro anticancer screening. An initial in vitro single-dose anticancer experiment was performed with the entire NCI 60 cell lines derived from nine tumor subpanel cancer cell lines. The results for each compound were illustrated as a mean graph showing the percentage growth of treated cells compared to untreated control cells (see Supplementary Materials).
(§2) The NCI anticancer screening process has been thoroughly detailed. The Drug Evaluation Branch of the National Cancer Institute in Bethesda, […], USA, established the procedure and conducted the anticancer assay on 60 human tumor cell lines from nine neoplastic cancers.

NCI-H522 = conditions: Homo sapiens, NCI-H522, Non-small cell lung cancer, read-out: Cell growth inhibition %
Method: as §1, §2

NCI-H322M = conditions: Homo sapiens, Non-small cell lung cancer, read-out: Cell growth inhibition %
Method: as §1, §2

K-562 = conditions: Homo sapiens, K562, K-562, Leukemia, read-out: Cell growth inhibition %
Method: as §1, §2

DU-145 = conditions: Homo sapiens, DU-145, Prostate cancer, read-out: Cell growth inhibition %
Method: as §1, §2

CCRF-CEM = conditions: Homo sapiens, Leukemia, read-out: Cell growth inhibition %
Method: as §1, §2

T-47D = conditions: Homo sapiens, T47D, Breast cancer, read-out: Cell growth inhibition %
Method: as §1, §2

SW-620 = conditions: Homo sapiens, SW-620, Colon cancer, read-out: Cell growth inhibition %
Method: as §1, §2

SN12C = conditions: Homo sapiens, Renal cancer, read-out: Cell growth inhibition %
Method: as §1, §2

KM12 = conditions: Homo sapiens, KM12, Colon cancer, read-out: Cell growth inhibition %
Method: as §1, §2

MCF7 = conditions: Homo sapiens, MCF7, Breast cancer, read-out: Cell growth inhibition %
Method: as §1, §2

HL-60(TB) = conditions: Homo sapiens, Leukemia, read-out: Cell growth inhibition %
Method: as §1, §2

EKVX = conditions: Homo sapiens, Non-small cell lung cancer, read-out: Cell growth inhibition %
Method: as §1, §2

SK-MEL-2 = conditions: Homo sapiens, SK-MEL-2, Melanoma, read-out: Cell growth inhibition %
Method: as §1, §2

SR = conditions: Homo sapiens, Leukemia, read-out: Cell growth inhibition %
Method: as §1, §2

UACC-257 = conditions: Homo sapiens, UACC-257, Melanoma, read-out: Cell growth inhibition %
Method: as §1, §2

MDA-MB-468 = conditions: Homo sapiens, MDA-MB-468, Breast cancer, read-out: Cell growth inhibition %
Method: as §1, §2

A549/ATCC = conditions: Homo sapiens, Non-small cell lung cancer, read-out: Cell growth inhibition %
Method: as §1, §2

HCC-2998 = conditions: Homo sapiens, HCC-2998, Colon cancer, read-out: Cell growth inhibition %
Method: as §1, §2

SK-MEL-28 = conditions: Homo sapiens, SK-MEL-28, Melanoma, read-out: Cell growth inhibition %
Method: as §1, §2

HOP-62 = conditions: Homo sapiens, HOP-62, Non-small cell lung cancer, read-out: Cell growth inhibition %
Method: as §1, §2

OVCAR-4 = conditions: Homo sapiens, OVCAR-4, Ovarian cancer, read-out: Cell growth inhibition %
Method: as §1, §2

SF-295 = conditions: Homo sapiens, SF-295, CNS cancer, read-out: Cell growth inhibition %
Method: as §1, §2

COLO 205 = conditions: Homo sapiens, COLO 205, Colon cancer, read-out: Cell growth inhibition %
Method: as §1, §2

OVCAR-3 = conditions: Homo sapiens, OVCAR-3, Ovarian cancer, read-out: Cell growth inhibition %
Method: as §1, §2

ACHN = conditions: Homo sapiens, Renal cancer, read-out: Cell growth inhibition %
Method: as §1, §2

SNB-19 = conditions: Homo sapiens, SNB-19, CNS cancer, read-out: Cell growth inhibition %
Method: as §1, §2

SK-OV-3 = conditions: Homo sapiens, SK-OV-3, Ovarian cancer, read-out: Cell growth inhibition %
Method: as §1, §2

MOLT-4 = conditions: Homo sapiens, MOLT-4, Leukemia, read-out: Cell growth inhibition %
Method: as §1, §2

MDA-MB-231/ATCC = conditions: Homo sapiens, Breast cancer, read-out: Cell growth inhibition %
Method: as §1, §2

HCT-15 = conditions: Homo sapiens, HCT-15, Colon cancer, read-out: Cell growth inhibition %
Method: as §1, §2

HCT-116 = conditions: Homo sapiens, HCT-116, Colon cancer, read-out: Cell growth inhibition %
Method: as §1, §2

HS 578 T = conditions: Homo sapiens, Breast cancer, read-out: Cell growth inhibition %
Method: as §1, §2

BT-549 = conditions: Homo sapiens, BT-549, Breast cancer, read-out: Cell growth inhibition %
Method: as §1, §2

SF-268 = conditions: Homo sapiens, SF-268, CNS cancer, read-out: Cell growth inhibition %
Method: as §1, §2

CAKI-1 = conditions: Homo sapiens, CAKI-1, Renal cancer, read-out: Cell growth inhibition %
Method: as §1, §2

HT29 = conditions: Homo sapiens, HT-29, HT29, Colon cancer, read-out: Cell growth inhibition %
Method: as §1, §2

## C=CCn1c(SC/C(=N\O)c2ccc(Br)cc2)nnc1-c1c[nH]c2ccccc12 [Compound 7d, (Z)-2-((4-allyl-5-(1H-indol-3-yl)-4H-1,2,4-triazol-3-yl)thio)-1-(4-bromophenyl) Ethanone Oxime]
M14
  inhibition at 10 µM: 19.2%
NCI-H522
  inhibition at 10 µM: 18.5%
NCI-H322M
  inhibition at 10 µM: 16.3%
K-562
  inhibition at 10 µM: 40.8%
DU-145
  inhibition at 10 µM: 6.21%
CCRF-CEM
  inhibition at 10 µM: 26.7%
T-47D
  inhibition at 10 µM: 39.8%
SW-620
  inhibition at 10 µM: 7.31%
SN12C
  inhibition at 10 µM: 16.3%
KM12
  inhibition at 10 µM: 8.58%
MCF7
  inhibition at 10 µM: 17.9%
HL-60(TB)
  inhibition at 10 µM: 35.7%
EKVX
  inhibition at 10 µM: 25.8%
SK-MEL-2
  inhibition at 10 µM: 8.97%
SR
  inhibition at 10 µM: 28.5%
UACC-257
  inhibition at 10 µM: -1.32%
MDA-MB-468
  inhibition at 10 µM: 42.2%
A549/ATCC
  inhibition at 10 µM: 9.17%
HCC-2998
  inhibition at 10 µM: -3.65%
SK-MEL-28
  inhibition at 10 µM: 7.82%
HOP-62
  inhibition at 10 µM: 0.14%
OVCAR-4
  inhibition at 10 µM: 24.5%
SF-295
  inhibition at 10 µM: 32.5%
COLO 205
  inhibition at 10 µM: 8.25%
OVCAR-3
  inhibition at 10 µM: -3.34%
ACHN
  inhibition at 10 µM: 17.9%
SNB-19
  inhibition at 10 µM: 8.36%
SK-OV-3
  inhibition at 10 µM: 3.28%
MOLT-4
  inhibition at 10 µM: 43.7%
MDA-MB-231/ATCC
  inhibition at 10 µM: 23.6%
HCT-15
  inhibition at 10 µM: 26.9%
HCT-116
  inhibition at 10 µM: 47%
HS 578 T
  inhibition at 10 µM: 22.1%
BT-549
  inhibition at 10 µM: 20.4%
SF-268
  inhibition at 10 µM: 4.98%
CAKI-1
  inhibition at 10 µM: 25.8%
HT29
  inhibition at 10 µM: 3.35%

## O/N=C(\CSc1nnc(-c2c[nH]c3ccccc23)n1-c1ccccc1)c1ccccc1 [Compound 7f, (Z)-2-((5-(1H-Indol-3-yl)-4-phenyl-4H-1,2,4-triazol-3-yl)thio)-1-phenylethanone Oxime]
M14
  inhibition at 10 µM: 54.2%
NCI-H522
  inhibition at 10 µM: 46.2%
NCI-H322M
  inhibition at 10 µM: 35%
K-562
  inhibition at 10 µM: 67.6%
DU-145
  inhibition at 10 µM: 40.2%
CCRF-CEM
  inhibition at 10 µM: 59%
T-47D
  inhibition at 10 µM: 80.2%
SW-620
  inhibition at 10 µM: 47.2%
SN12C
  inhibition at 10 µM: 42.6%
KM12
  inhibition at 10 µM: 59.9%
MCF7
  inhibition at 10 µM: 58.9%
HL-60(TB)
  inhibition at 10 µM: 75.3%
EKVX
  inhibition at 10 µM: 73.6%
SK-MEL-2
  inhibition at 10 µM: 50.8%
SR
  inhibition at 10 µM: 43.8%
UACC-257
  inhibition at 10 µM: 20.1%
MDA-MB-468
  inhibition at 10 µM: 64.6%
A549/ATCC
  inhibition at 10 µM: 46.9%
HCC-2998
  inhibition at 10 µM: 43.3%
SK-MEL-28
  inhibition at 10 µM: 45.5%
HOP-62
  inhibition at 10 µM: 15.4%
OVCAR-4
  inhibition at 10 µM: 62.2%
SF-295
  inhibition at 10 µM: 60.8%
COLO 205
  inhibition at 10 µM: 47.1%
OVCAR-3
  inhibition at 10 µM: 45%
ACHN
  inhibition at 10 µM: 58.4%
SNB-19
  inhibition at 10 µM: 48.5%
SK-OV-3
  inhibition at 10 µM: 30.6%
MOLT-4
  inhibition at 10 µM: 76.1%
MDA-MB-231/ATCC
  inhibition at 10 µM: 31.3%
HCT-15
  inhibition at 10 µM: 74.8%
HCT-116
  inhibition at 10 µM: 60%
HS 578 T
  inhibition at 10 µM: 33.3%
BT-549
  inhibition at 10 µM: 42.5%
SF-268
  inhibition at 10 µM: 23.1%
CAKI-1
  inhibition at 10 µM: 48.9%
HT29
  inhibition at 10 µM: 50.7%

## C=CCn1c(SC/C(=N\O)c2ccc(C)cc2)nnc1-c1c[nH]c2ccccc12 [Compound 7c, (Z)-2-((4-allyl-5-(1H-indol-3-yl)-4H-1,2,4-triazol-3-yl)thio)-1-(p-tolyl)ethanone Oxime]
M14
  inhibition at 10 µM: 5.59%
NCI-H522
  inhibition at 10 µM: 14.6%
NCI-H322M
  inhibition at 10 µM: 5.67%
K-562
  inhibition at 10 µM: 13.3%
DU-145
  inhibition at 10 µM: -2.38%
CCRF-CEM
  inhibition at 10 µM: 2.91%
T-47D
  inhibition at 10 µM: 26.5%
SW-620
  inhibition at 10 µM: 4.06%
SN12C
  inhibition at 10 µM: 11.7%
KM12
  inhibition at 10 µM: 0.27%
MCF7
  inhibition at 10 µM: 11.9%
HL-60(TB)
  inhibition at 10 µM: 10%
EKVX
  inhibition at 10 µM: 17.7%
SK-MEL-2
  inhibition at 10 µM: 1.01%
SR
  inhibition at 10 µM: 16.5%
UACC-257
  inhibition at 10 µM: -6.62%
MDA-MB-468
  inhibition at 10 µM: 27.1%
A549/ATCC
  inhibition at 10 µM: 4.9%
HCC-2998
  inhibition at 10 µM: 1.5%
SK-MEL-28
  inhibition at 10 µM: -5.62%
HOP-62
  inhibition at 10 µM: 8.72%
OVCAR-4
  inhibition at 10 µM: 6.11%
SF-295
  inhibition at 10 µM: 15.1%
COLO 205
  inhibition at 10 µM: -6.48%
OVCAR-3
  inhibition at 10 µM: -6.11%
ACHN
  inhibition at 10 µM: 11.4%
SNB-19
  inhibition at 10 µM: 8.04%
SK-OV-3
  inhibition at 10 µM: -0.26%
MOLT-4
  inhibition at 10 µM: 20.4%
MDA-MB-231/ATCC
  inhibition at 10 µM: 4.01%
HCT-15
  inhibition at 10 µM: 11.3%
HCT-116
  inhibition at 10 µM: 22.3%
HS 578 T
  inhibition at 10 µM: 6.55%
BT-549
  inhibition at 10 µM: -7.22%
SF-268
  inhibition at 10 µM: 3.63%
CAKI-1
  inhibition at 10 µM: 20.2%
HT29
  inhibition at 10 µM: -4.09%

## C=CCn1c(SCC(=NO)c2ccc(OC)cc2)nnc1-c1c[nH]c2ccccc12 [Compound 7b, 2-((4-allyl-5-(1H-indol-3-yl)-4H-1,2,4-triazol-3-yl)thio)-1-(4-methoxyphenyl) Ethanone Oxime]
M14
  inhibition at 10 µM: 2.83%
NCI-H522
  inhibition at 10 µM: 8.33%
NCI-H322M
  inhibition at 10 µM: -1.52%
K-562
  inhibition at 10 µM: 13.6%
DU-145
  inhibition at 10 µM: -5.85%
CCRF-CEM
  inhibition at 10 µM: 8.83%
T-47D
  inhibition at 10 µM: 26.4%
SW-620
  inhibition at 10 µM: -2.43%
SN12C
  inhibition at 10 µM: 8.24%
KM12
  inhibition at 10 µM: -5.28%
MCF7
  inhibition at 10 µM: 11.3%
HL-60(TB)
  inhibition at 10 µM: 16.1%
EKVX
  inhibition at 10 µM: 7.49%
SK-MEL-2
  inhibition at 10 µM: -7.88%
SR
  inhibition at 10 µM: 3.76%
UACC-257
  inhibition at 10 µM: -11.5%
MDA-MB-468
  inhibition at 10 µM: 16.3%
A549/ATCC
  inhibition at 10 µM: -9.29%
HCC-2998
  inhibition at 10 µM: -8.35%
SK-MEL-28
  inhibition at 10 µM: -3.89%
HOP-62
  inhibition at 10 µM: 2%
OVCAR-4
  inhibition at 10 µM: -1.81%
SF-295
  inhibition at 10 µM: 16.6%
COLO 205
  inhibition at 10 µM: -11.9%
OVCAR-3
  inhibition at 10 µM: -9.23%
ACHN
  inhibition at 10 µM: 7.56%
SNB-19
  inhibition at 10 µM: 1.65%
SK-OV-3
  inhibition at 10 µM: 1.86%
MOLT-4
  inhibition at 10 µM: 8.18%
MDA-MB-231/ATCC
  inhibition at 10 µM: 13.5%
HCT-15
  inhibition at 10 µM: 4.34%
HCT-116
  inhibition at 10 µM: 23.6%
HS 578 T
  inhibition at 10 µM: 2.61%
BT-549
  inhibition at 10 µM: -3.8%
SF-268
  inhibition at 10 µM: -0.98%
CAKI-1
  inhibition at 10 µM: 1.5%
HT29
  inhibition at 10 µM: -5.85%
